The record followed here is patent US7179832B2, “Glycogen synthase kinase 3β inhibitor, composition and process for the preparation thereof” (Crystalgenomics, Inc., priority 2003, dated 2007).

Molecules are shown by their SMILES.

In one test the target is GSK-3β (Homo sapiens, UniProt P49841). The test is described as follows: Assay for GSK-3β inhibiting activity (32P-ATP, phospho-CREB peptide substrate, filter paper, CPM). In kind it is biochemical. The following applies: GSK-3β inhibiting activity; 100 nM GSK-3β protein, 100 μM phospho-CREB peptide, 100 μM ATP, 30° C. for 1 hour; read-out: IC50. The method, then: Assay for GSK-3β inhibiting activity
GSK-3β, sequence (P49841 whole entry, the tested form may be a part): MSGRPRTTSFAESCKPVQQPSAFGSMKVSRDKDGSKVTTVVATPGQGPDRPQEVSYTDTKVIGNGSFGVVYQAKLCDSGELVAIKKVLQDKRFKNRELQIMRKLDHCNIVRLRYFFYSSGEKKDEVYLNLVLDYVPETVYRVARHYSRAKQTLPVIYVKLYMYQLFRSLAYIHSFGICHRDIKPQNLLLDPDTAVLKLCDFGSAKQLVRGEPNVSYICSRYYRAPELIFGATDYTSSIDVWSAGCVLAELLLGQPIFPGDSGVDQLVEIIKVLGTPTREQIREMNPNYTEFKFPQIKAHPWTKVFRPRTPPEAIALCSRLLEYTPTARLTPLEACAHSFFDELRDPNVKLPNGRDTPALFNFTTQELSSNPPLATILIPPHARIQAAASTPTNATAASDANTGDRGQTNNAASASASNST
First, PCR (polymerase chain reaction) was carried out using human DNA as a template as well as primers which were designed to correspond to the 3′- and 5′ ends of the polynucleotide coding human GSK-3β gene (Genbank Accession No.: L33801). The BamH1/XhoI fragment of the amplified PCR product thus obtained was inserted into the pGex vector between the BamH1 and XhoI sites, and the vector obtained was transformed into E. coli BL21(DE3). The transformed cells thus obtained was incubated in […] (1% Bacto-trypton, 0.5% yeast extract, 1% NaCl) containing ampicillin ([…]) until the optical density at 600 nm reached about 0.5. The cultured mixture was cooled to 18° C. and isopropyl β-D-thiogalacto-pyranoside (IPTG) was added thereto to a final concentration of 0.5 mM. After 16 hours, the resultant was centrifuged at 10,000×g for 10 min, the collected cells were suspended in a buffer solution (30 mM Tris-HCl (pH 7.5), 100 mM NaCl, 5% glycerol, 2 mM DTT) and the cells were disrupted using Sonic Dismembrator (Fisher, U.S.A.) in a ice bath. The resulting solution was centrifuged at 16,000 rpm for 30 minutes. […] The purified GSK-3β protein was diluted in a buffer solution (20 mM HEPES (pH 7.5), 5% glycerol, 2 mM DTT) to a final concentration of 50 mM NaCl and the resulting solution was subjected to mono S column chromatography (eluent: linear gradient from 0M to 1M NaCl buffer) using mono S column (Pharmacia Biotech, U.S.A.) equilibrated in the same buffer solution to obtain GSK-3β protein.
The reaction was stopped by adding 5 μl of 5% phosphoric acid to 25 μl of the resulting solution. The resulting mixture was centrifuged at 15,000 rpm for 10 min, 20 μl of the supernatant was added dropwise to Whatman p81 filter paper, and then, the resulting filter paper was washed with 0.5% phosphate buffer for 10 min. The filter paper was further washed 3 times and the enzymatic activity was determined by examining the extent of phospho-CREB peptide phosphorylation which is represented by the unit of count per minute (CPM), measured with a β-counter (Packard, USA).
The GSK-3β inhibiting activity was then calculated in accordance with the following equation:
[formula] wherein the blank represents a value obtained without the use of the enzyme and the compound of the present invention, and the control, in the absence of the compound of the present invention.
Turning to `NC(=O)c1ccc(O)c2[nH]c(-c3ccccc3)nc12` [Compound 1, 7-hydroxy-2-phenyl-1H-benzoimidazole-4-carboxylic acid amide], the IC50 (as a rule, the concentration at which inhibition is half-maximal) was over 1 µM.

For `Nc1ccc(NC(=O)c2ccc(O)c3[nH]c(-c4ccccc4)nc23)cc1` [Compound 4], the IC50 was over 1 µM.

As to `O=C(NC1CCC(O)CC1)c1ccc(O)c2[nH]c(-c3ccccc3)nc12` (stereo not drawn) [Compound 5], the IC50 came to 0.3 µM.

Take `O=C(Nc1ccc(CO)cc1)c1ccc(O)c2[nH]c(-c3ccccc3)nc12` [Compound 6]: the IC50 was over 1 µM.

As to `NCCc1ccc(NC(=O)c2ccc(O)c3[nH]c(-c4ccccc4)nc23)cc1` [Compound 8], the 50% inhibitory concentration (IC50) was over 1 µM.

As for `Cc1ccc(S(=O)(=O)NCCc2ccc(NC(=O)c3ccc(O)c4[nH]c(-c5ccccc5)nc34)cc2)cc1` [Compound 9], the IC50 is 0.18 µM.

Regarding `CS(=O)(=O)NCCc1ccc(NC(=O)c2ccc(O)c3[nH]c(-c4ccccc4)nc23)cc1` [Compound 10], the IC50 came to 0.04 µM.

As to `O=C(Nc1ccc(CCN2C(=O)c3ccccc3C2=O)cc1)c1ccc(O)c2[nH]c(-c3ccccc3)nc12` [Compound 11], the IC50 is over 5 µM.

With `O=C(Nc1ccc(CCNS(=O)(=O)c2cccs2)cc1)c1ccc(O)c2[nH]c(-c3ccccc3)nc12` [Compound 12], the IC50 worked out at 0.2 µM.

As for `CCS(=O)(=O)NCCc1ccc(NC(=O)c2ccc(O)c3[nH]c(-c4ccccc4)nc23)cc1` [Compound 13], the concentration for half-maximal inhibition (IC50) came out at 0.36 µM.

With `O=C(Nc1ccccc1)c1ccc(O)c2[nH]c(-c3ccc(Cl)cc3)nc12` [Compound 14], the IC50 was over 1 µM.

With `O=C(NC1CCC(O)CC1)c1ccc(O)c2[nH]c(-c3ccc(Cl)cc3)nc12` (stereo not drawn) [Compound 15], the IC50 was found to be 0.11 µM.

As for `Cc1ccc(S(=O)(=O)NCCc2ccc(NC(=O)c3ccc(O)c4[nH]c(-c5ccc(Cl)cc5)nc34)cc2)cc1` [Compound 16], the IC50 was determined as 0.7 µM.

On to `CS(=O)(=O)NCCc1ccc(NC(=O)c2ccc(O)c3[nH]c(-c4ccc(Cl)cc4)nc23)cc1` [Compound 17], for which the IC50 was found to be 0.24 µM.

As for `O=C(Nc1ccc(CCN2C(=O)c3ccccc3C2=O)cc1)c1ccc(O)c2[nH]c(-c3ccc(Cl)cc3)nc12` [Compound 18], the IC50 was over 1 µM.

Regarding `O=C(Nc1ccc(CCNS(=O)(=O)c2cccs2)cc1)c1ccc(O)c2[nH]c(-c3ccc(Cl)cc3)nc12` [Compound 19], the IC50 was over 1 µM.

`CCS(=O)(=O)NCCc1ccc(NC(=O)c2ccc(O)c3[nH]c(-c4ccc(Cl)cc4)nc23)cc1` [Compound 20]: the IC50 came to 4.1 µM.

As for `O=C(Nc1ccccc1)c1ccc(O)c2[nH]c(-c3ccc(Cl)cc3Cl)nc12` [Compound 22], the concentration for half-maximal inhibition (IC50) is over 1 µM.

Consider `O=C(NC1CCC(O)CC1)c1ccc(O)c2[nH]c(-c3ccc(Cl)cc3Cl)nc12` (stereo not drawn) [Compound 23], for which the IC50 came to 0.68 µM.

Regarding `NCCc1ccc(NC(=O)c2ccc(O)c3[nH]c(-c4ccc(Cl)cc4Cl)nc23)cc1` [Compound 24], the concentration for half-maximal inhibition (IC50) was over 5 µM.

As to `Nc1ccc(NC(=O)c2ccc(O)c3[nH]c(-c4ccc(Cl)cc4Cl)nc23)cc1` [Compound 25], the IC50 was over 1 µM.

Consider `O=C(Nc1ccc(CO)cc1)c1ccc(O)c2[nH]c(-c3ccc(Cl)cc3Cl)nc12` [Compound 26], for which the IC50 is over 1 µM.

`O=C(Nc1ccc(CCO)cc1)c1ccc(O)c2[nH]c(-c3ccc(Cl)cc3Cl)nc12` [Compound 27]: the IC50 was over 1 µM.

For `Cc1ccc(S(=O)(=O)NCCc2ccc(NC(=O)c3ccc(O)c4[nH]c(-c5ccc(Cl)cc5Cl)nc34)cc2)cc1` [Compound 28], the IC50 turned out to be 0.74 µM.

On to `O=C(Nc1ccc(CCN2C(=O)c3ccccc3C2=O)cc1)c1ccc(O)c2[nH]c(-c3ccc(Cl)cc3Cl)nc12` [Compound 30], for which the IC50 was over 1 µM.

With `O=C(Nc1ccc(CCNS(=O)(=O)c2cccs2)cc1)c1ccc(O)c2[nH]c(-c3ccc(Cl)cc3Cl)nc12` [Compound 31], the IC50 is over 1 µM.

As for `CCS(=O)(=O)NCCc1ccc(NC(=O)c2ccc(O)c3[nH]c(-c4ccc(Cl)cc4Cl)nc23)cc1` [Compound 32], the IC50 was 0.5 µM.

As for `CS(=O)(=O)NCCc1ccc(NC(=O)c2ccc(O)c3[nH]c(-c4ccc(F)cc4)nc23)cc1` [Compound 33], the IC50 was over 1 µM.

In the case of `Cc1ccc(S(=O)(=O)NCCc2ccc(NC(=O)c3ccc(O)c4[nH]c(-c5ccc(F)cc5)nc34)cc2)cc1` [Compound 34], the IC50 is over 1 µM.

As for `CCS(=O)(=O)NCCc1ccc(NC(=O)c2ccc(O)c3[nH]c(-c4ccc(F)cc4)nc23)cc1` [Compound 35], the IC50 came out at 0.007 µM.

Consider `O=C(Nc1ccc(N2CCOCC2)cc1)c1ccc(O)c2[nH]c(-c3ccc(F)cc3)nc12` [Compound 36], for which the IC50 is over 1 µM.

Take `CS(=O)(=O)NCCc1ccc(NC(=O)c2ccc(O)c3[nH]c(-c4ccc(F)cc4F)nc23)cc1` [Compound 37]: the IC50 is over 1 µM.

For the compound `Cc1ccc(S(=O)(=O)NCCc2ccc(NC(=O)c3ccc(O)c4[nH]c(-c5ccc(F)cc5F)nc34)cc2)cc1` [Compound 38], the half-maximal inhibitory concentration (IC50) was over 1 µM.

Consider `CCS(=O)(=O)NCCc1ccc(NC(=O)c2ccc(O)c3[nH]c(-c4ccc(F)cc4F)nc23)cc1` [Compound 39], for which the IC50 is over 1 µM.

As to `Cc1ccc(S(=O)(=O)NCCc2ccc(NC(=O)c3ccc(O)c4[nH]c(-c5ccc(F)cc5Cl)nc34)cc2)cc1` [Compound 40], the IC50 is over 1 µM.

`CS(=O)(=O)NCCc1ccc(NC(=O)c2ccc(O)c3[nH]c(-c4ccc(F)cc4Cl)nc23)cc1` [Compound 41]: the 50% inhibitory concentration (IC50) was over 1 µM.

`CCS(=O)(=O)NCCc1ccc(NC(=O)c2ccc(O)c3[nH]c(-c4ccc(F)cc4Cl)nc23)cc1` [Compound 42]: the IC50 was over 1 µM.

Take `Cc1ccc(S(=O)(=O)NCCc2ccc(NC(=O)c3ccc(O)c4[nH]c(-c5ccc(F)c(Cl)c5)nc34)cc2)cc1` [Compound 43]: the concentration for half-maximal inhibition (IC50) is over 1 µM.

On to `CCS(=O)(=O)NCCc1ccc(NC(=O)c2ccc(O)c3[nH]c(-c4ccc(F)c(Cl)c4)nc23)cc1` [Compound 44], for which the concentration for half-maximal inhibition (IC50) is over 1 µM.

Take `CS(=O)(=O)NCCc1ccc(NC(=O)c2ccc(O)c3[nH]c(-c4ccc(F)c(Cl)c4)nc23)cc1` [Compound 45]: the IC50 was found to be 0.02 µM.

As for `O=C(c1ccc(O)c2[nH]c(-c3ccc(Cl)cc3Cl)nc12)N1CCCCC1` [Compound 48], the IC50 was over 5 µM.

`O=C(NCc1ccc([N+](=O)[O-])cc1)c1ccc(O)c2[nH]c(-c3ccccc3)nc12` [Compound 49]: the IC50 turned out to be 0.6 µM.

As for `Nc1ccc(CNC(=O)c2ccc(O)c3[nH]c(-c4ccccc4)nc23)cc1` [Compound 50], the 50% inhibitory concentration (IC50) was 0.6 µM.

For `O=C(NCc1ccccc1)c1ccc(O)c2nc(-c3ccccc3)[nH]c12` [Compound 51], the IC50 amounted to 0.87 µM.

As for `O=C(NCc1ccccc1)c1ccc(O)c2[nH]c(-c3ccc(Cl)cc3)nc12` [Compound 52], the IC50 was over 1 µM.

Take `O=C(NCc1ccc([N+](=O)[O-])cc1)c1ccc(O)c2[nH]c(-c3ccc(Cl)cc3)nc12` [Compound 53]: the IC50 is over 1 µM.

Take `Nc1ccc(CNC(=O)c2ccc(O)c3[nH]c(-c4ccc(Cl)cc4)nc23)cc1` [Compound 54]: the IC50 is over 1 µM.

As for `O=C(NCc1ccccc1)c1ccc(O)c2[nH]c(-c3ccc(Cl)cc3Cl)nc12` [Compound 55], the IC50 was over 1 µM.

Regarding `O=C(NCc1ccc([N+](=O)[O-])cc1)c1ccc(O)c2[nH]c(-c3ccc(Cl)cc3Cl)nc12` [Compound 56], the half-maximal inhibitory concentration (IC50) was found to be 0.7 µM.

Regarding `O=C(NCCc1ccccc1)c1ccc(O)c2nc(-c3ccccc3)[nH]c12` [Compound 57], the IC50 stood at 0.58 µM.

`O=C(NCCc1ccc(O)cc1)c1ccc(O)c2[nH]c(-c3ccccc3)nc12` [Compound 58]: the IC50 was 0.67 µM.

Turning to `O=C(NCCc1ccc([N+](=O)[O-])cc1)c1ccc(O)c2[nH]c(-c3ccccc3)nc12` [Compound 59], the IC50 is 0.16 µM.

Take `Nc1ccc(CCNC(=O)c2ccc(O)c3nc(-c4ccccc4)[nH]c23)cc1` [Compound 60]: the IC50 came out at 0.35 µM.

For the compound `NCCNC(=O)c1ccc(O)c2[nH]c(-c3ccccc3)nc12` [Compound 61], the half-maximal inhibitory concentration (IC50) was over 1 µM.

In the case of `COc1cc(CCNC(=O)c2ccc(O)c3[nH]c(-c4ccccc4)nc23)ccc1O` [Compound 62], the IC50 was over 1 µM.

In the case of `COc1ccc(CCNC(=O)c2ccc(O)c3[nH]c(-c4ccccc4)nc23)cc1O` [Compound 63], the IC50 was 0.45 µM.

Still in this test, the particulars now being: IC50 (μM).
`CS(=O)(=O)NCCc1ccc(NC(=O)c2ccc(O)c3[nH]c(-c4ccc(Cl)cc4Cl)nc23)cc1` [Compound 29]: the IC50 is 0.08 µM.
